Results: ChEMBL document CHEMBL1201862, “PubChem BioAssay data set” (2004)
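Protocol summary: plate cells (96-well), add compound at 5 concentrations, incubate 48 h, interpolate endpoints linearly. GI50 = concentration required for 50% inhibition of growth.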 Active and inactive are the calls of the source. Rule as the data show it: active = GI50 up to about 1.1 µM and inactive = higher.

Key:
Experiment in all cases: growth of human tumour cells (NCI), 48 h
[1] = system: UO-31
[2] = system: MOLT-4
[3] = system: CCRF-CEM
[4] = system: A498
[5] = system: KM12
[6] = system: NCI-H522
[7] = system: M14
[8] = system: PC-3
[9] = system: OVCAR-8
[10] = system: NCI-H460
[11] = system: EKVX
[12] = system: K562
[13] = system: HCT-15
[14] = system: SF-539
[15] = system: SNB-19
[16] = system: COLO 205
[17] = system: HT-29
[18] = system: SF-268
[19] = system: CAKI-1
[20] = system: SK-OV-3
[21] = system: SF-295
[22] = system: DU-145
[23] = system: MDA-MB-231
[24] = system: HCC 2998
[25] = system: 786-0
[26] = system: SNB-75
[27] = system: HCT-116
[28] = system: UACC-257
[29] = system: HOP-62
[30] = system: IGROV-1
[31] = system: MDA-MB-435
[32] = system: SW-620
[33] = system: A549
[34] = system: SK-MEL-5
[35] = system: ACHN
[36] = system: LOX IMVI
[37] = system: NCI-H226
[38] = system: TK-10
[39] = system: HL-60
[40] = system: OVCAR-4
[41] = system: NCI-H23
[42] = system: BT-549
[43] = system: SN12C
[44] = system: SR
[45] = system: Hs-578T
[46] = system: RXF 393
[47] = system: SK-MEL-28
[48] = system: RPMI-8226
[49] = system: SK-MEL-2
[50] = system: OVCAR-3
[51] = system: HOP-92
[52] = system: OVCAR-5
[53] = system: NCI/ADR-RES
[54] = system: Malme-3M
[55] = system: T47D
[56] = system: UACC-62
[57] = system: MCF7
[58] = system: U-251
[59] = system: MDA-N

N/C(=N\Nc1cccc(Cl)c1)c1cccnc1
GI50 [1]: 7.87 µM (inactive)
GI50 [2]: 28.3 µM (inactive)
GI50 [3]: 18.6 µM (inactive)
GI50 [4]: 22.2 µM (inactive)
GI50 [5]: 30 µM (inactive)
GI50 [6]: 29.6 µM (inactive)
GI50 [7]: 17.1 µM (inactive)
GI50 [8]: 31 µM (inactive)
GI50 [9]: > 78.3 µM (inactive)
GI50 [10]: 35.2 µM (inactive)
GI50 [11]: 40.6 µM (inactive)
GI50 [12]: 4.04 µM (inactive)
GI50 [13]: 39.6 µM
GI50 [14]: 30.2 µM (inactive)
GI50 [15]: 58.9 µM (inactive)
GI50 [16]: 29 µM (inactive)
GI50 [17]: 27.2 µM (inactive)
GI50 [18]: 65.3 µM (inactive)
GI50 [19]: 3.49 µM (inactive)
GI50 [20]: > 100 µM (inactive)
GI50 [21]: 35.7 µM (inactive)
GI50 [22]: 82.2 µM (inactive)
GI50 [23]: 81.1 µM (inactive)
GI50 [24]: 36 µM (inactive)
GI50 [25]: 38.2 µM (inactive)
GI50 [26]: 29.7 µM (inactive)
GI50 [27]: 29.9 µM (inactive)
GI50 [28]: 32.3 µM (inactive)
GI50 [29]: > 100 µM (inactive)
GI50 [30]: 70.6 µM (inactive)
GI50 [31]: 2.72 µM (inactive)
GI50 [32]: 54.2 µM (inactive)
GI50 [33]: 52.7 µM (inactive)
GI50 [34]: 32.9 µM (inactive)
GI50 [35]: 18.9 µM (inactive)
GI50 [36]: 50 µM (inactive)
GI50 [37]: 33.9 µM (inactive)
GI50 [38]: 28.6 µM (inactive)
GI50 [39]: 4.28 µM (inactive)
GI50 [40]: 13.7 µM (inactive)
GI50 [41]: 43.5 µM (inactive)
GI50 [42]: > 69 µM (inactive)
GI50 [43]: 60 µM (inactive)
GI50 [44]: 26 µM (inactive)
GI50 [45]: > 100 µM (inactive)
GI50 [46]: 23.1 µM (inactive)
GI50 [47]: 72.8 µM (inactive)
GI50 [48]: 14.7 µM (inactive)
GI50 [49]: 36.9 µM (inactive)
GI50 [50]: 13.5 µM (inactive)
GI50 [51]: > 68.7 µM (inactive)
GI50 [52]: 41.3 µM (inactive)
GI50 [53]: 38.7 µM (inactive)
GI50 [54]: 97.9 µM (inactive)
GI50 [55]: 18.9 µM (inactive)
GI50 [56]: 22.8 µM (inactive)
GI50 [57]: 38.7 µM (inactive)
GI50 [58]: 41.8 µM (inactive)

Cc1nc(C(N)=S)sc1C(=O)C/C(=N/N)C(=O)Nc1cccc(Cl)c1C
GI50 [1]: > 100 µM (inactive)
GI50 [2]: > 100 µM (inactive)
GI50 [3]: > 100 µM (inactive)
GI50 [4]: > 100 µM (inactive)
GI50 [5]: > 100 µM (inactive)
GI50 [6]: > 100 µM (inactive)
GI50 [7]: > 100 µM (inactive)
GI50 [8]: > 100 µM (inactive)
GI50 [9]: > 100 µM (inactive)
GI50 [10]: > 100 µM (inactive)
GI50 [11]: > 100 µM (inactive)
GI50 [12]: > 100 µM (inactive)
GI50 [13]: > 100 µM
GI50 [14]: > 100 µM (inactive)
GI50 [15]: > 100 µM (inactive)
GI50 [17]: > 100 µM (inactive)
GI50 [18]: > 100 µM (inactive)
GI50 [19]: > 100 µM (inactive)
GI50 [59]: > 100 µM (inactive)
GI50 [20]: > 100 µM (inactive)
GI50 [21]: > 100 µM (inactive)
GI50 [23]: > 100 µM (inactive)
GI50 [24]: > 100 µM (inactive)
GI50 [25]: > 100 µM (inactive)
GI50 [26]: > 100 µM (inactive)
GI50 [27]: > 100 µM (inactive)
GI50 [28]: > 100 µM (inactive)
GI50 [29]: > 100 µM (inactive)
GI50 [30]: > 100 µM (inactive)
GI50 [31]: > 100 µM (inactive)
GI50 [32]: > 100 µM (inactive)
GI50 [33]: > 100 µM (inactive)
GI50 [34]: > 100 µM (inactive)
GI50 [35]: > 100 µM (inactive)
GI50 [36]: > 100 µM (inactive)
GI50 [37]: > 100 µM (inactive)
GI50 [38]: > 100 µM (inactive)
GI50 [39]: > 100 µM (inactive)
GI50 [40]: > 100 µM (inactive)
GI50 [41]: > 100 µM (inactive)
GI50 [42]: > 100 µM (inactive)
GI50 [43]: > 100 µM (inactive)
GI50 [44]: > 100 µM (inactive)
GI50 [45]: > 100 µM (inactive)
GI50 [46]: > 100 µM (inactive)
GI50 [47]: > 100 µM (inactive)
GI50 [48]: > 100 µM (inactive)
GI50 [49]: > 100 µM (inactive)
GI50 [50]: > 100 µM (inactive)
GI50 [51]: > 100 µM (inactive)
GI50 [52]: > 100 µM (inactive)
GI50 [53]: > 100 µM (inactive)
GI50 [54]: > 100 µM (inactive)
GI50 [55]: > 100 µM (inactive)
GI50 [56]: > 100 µM (inactive)
GI50 [57]: > 100 µM (inactive)
GI50 [58]: > 100 µM (inactive)
